# Reference: article PMC8398847, “Isavuconazole: Thermodynamic Evaluation of Processes Sublimation, Dissolution and Partition in Pharmaceutically Relevant Media” (Molecules, 2021)
# Assays:
# [1] = PXRD analysis of bottom phases after solubility experiments; assay type: physicochemical; details: all the studied solvents; no solvated forms
# Procedure: The IVZ solubility values in buffer solutions of different acidity, ethanol, propanol, 1-octanol and hexane within the temperature range of 293.15–313.15 K were determined by the isothermal saturation method and are presented in Table 2 and Figure 5. After the solubility experiments, the bottom phases were removed from the saturated solutions and analyzed by the PXRD method.
# After the solubility study was complete, PXRD analysis was performed on isavuconazole powders recovered from solvents. All samples were measured at 40 kV and 40 mA using a Bruker D8 Advance diffractometer with CuKa radiation (λ = 1.5406 Å) at room temperature. Diffraction patterns for the samples were collected by changing the angle of diffraction (2θ) from 5° to 30° with a step size 0.03°.
# [2] = Solubility data modeling (modified Apelblat and van’t Hoff equations)
# From the text: The modified Apelblat model developed for nonideal solutions is one of the most frequently used models for prediction and correlation of solubility data and can be expressed as follows:(21) lnx=A+B/T/K+Cln(T/K) where x is the compound solubility in the studied solvents, which can be determined by Equation (8); T is the absolute temperature; A, B and C are three empirical constants of the equation. The A and B values represent changes in the solution behavior as a result of the nonideality of the solute solubility, whereas C reflects the connection between the melting point and enthalpy. Despite its simple mathematical expression, this model can ensure high accuracy of prediction of the solute solubility at a variety of temperature values.
# The van’t Hoff equation can be used to calculate the relationship between the solubility of solute and temperature. The equation can be simplified as Equation (22). (22) lnx=A+B/(T/K) where x represents the mole fraction solubility of compound. T is the absolute temperature and A, B are the regression parameters obtained using multivariable least-square method.
structure (smiles),measurement,setting,value
"C[C@@H](c1nc(-c2ccc(C#N)cc2)cs1)[C@](O)(Cn1cncn1)c1cc(F)ccc1F [IVZ, Isavuconazole]",solid-phase stability during solubility experiments (PXRD),[1],stable
same,xcal modified Apelblat equation,"[2]; 1-octanol, 293.15 K",6.2160·10^−3
same,xcal van’t Hoff equation,"[2]; 1-octanol, 293.15 K",6.2245·10^−3
same,xcal modified Apelblat equation,"[2]; 1-octanol, 298.15 K",7.4880·10^−3
same,xcal van’t Hoff equation,"[2]; 1-octanol, 298.15 K",7.4831·10^−3
same,xcal modified Apelblat equation,"[2]; 1-octanol, 303.15 K",8.9532·10^−3
same,xcal van’t Hoff equation,"[2]; 1-octanol, 303.15 K",8.9416·10^−3
same,xcal modified Apelblat equation,"[2]; 1-octanol, 308.15 K",10.629·10^−3
same,xcal van’t Hoff equation,"[2]; 1-octanol, 308.15 K",10.623·10^−3
same,xcal modified Apelblat equation,"[2]; 1-octanol, 313.15 K",12.534·10^−3
same,xcal van’t Hoff equation,"[2]; 1-octanol, 313.15 K",12.551·10^−3
same,xcal modified Apelblat equation,"[2]; 1-propanol, 293.15 K",7.8833·10^−3
same,xcal van’t Hoff equation,"[2]; 1-propanol, 293.15 K",7.8924·10^−3
same,xcal modified Apelblat equation,"[2]; 1-propanol, 298.15 K",9.5597·10^−3
same,xcal van’t Hoff equation,"[2]; 1-propanol, 298.15 K",9.5750·10^−3
same,xcal modified Apelblat equation,"[2]; 1-propanol, 303.15 K",11.528·10^−3
same,xcal van’t Hoff equation,"[2]; 1-propanol, 303.15 K",11.542·10^−3
same,xcal modified Apelblat equation,"[2]; 1-propanol, 308.15 K",13.827·10^−3
same,xcal van’t Hoff equation,"[2]; 1-propanol, 308.15 K",13.830·10^−3
same,xcal modified Apelblat equation,"[2]; 1-propanol, 313.15 K",16.501·10^−3
same,xcal van’t Hoff equation,"[2]; 1-propanol, 313.15 K",16.475·10^−3
same,xcal modified Apelblat equation,"[2]; buffer pH 1.2, 293.15 K",6.8301·10^−7
same,xcal van’t Hoff equation,"[2]; buffer pH 1.2, 293.15 K",6.8234·10^−7
same,xcal modified Apelblat equation,"[2]; buffer pH 1.2, 298.15 K",7.6469·10^−7
same,xcal van’t Hoff equation,"[2]; buffer pH 1.2, 298.15 K",7.6519·10^−7
same,xcal modified Apelblat equation,"[2]; buffer pH 1.2, 303.15 K",8.5388·10^−7
same,xcal van’t Hoff equation,"[2]; buffer pH 1.2, 303.15 K",8.5488·10^−7
same,xcal modified Apelblat equation,"[2]; buffer pH 1.2, 308.15 K",9.5109·10^−7
same,xcal van’t Hoff equation,"[2]; buffer pH 1.2, 308.15 K",9.5164·10^−7
same,xcal modified Apelblat equation,"[2]; buffer pH 1.2, 313.15 K",10.568·10^−7
same,xcal van’t Hoff equation,"[2]; buffer pH 1.2, 313.15 K",10.557·10^−7
same,xcal modified Apelblat equation,"[2]; buffer pH 2.0, 293.15 K",1.8489·10^−7
same,xcal van’t Hoff equation,"[2]; buffer pH 2.0, 293.15 K",1.8386·10^−7
same,xcal modified Apelblat equation,"[2]; buffer pH 2.0, 298.15 K",2.2301·10^−7
same,xcal van’t Hoff equation,"[2]; buffer pH 2.0, 298.15 K",2.2353·10^−7
same,xcal modified Apelblat equation,"[2]; buffer pH 2.0, 303.15 K",2.6872·10^−7
same,xcal van’t Hoff equation,"[2]; buffer pH 2.0, 303.15 K",2.7002·10^−7
same,xcal modified Apelblat equation,"[2]; buffer pH 2.0, 308.15 K",3.2354·10^−7
same,xcal van’t Hoff equation,"[2]; buffer pH 2.0, 308.15 K",3.2418·10^−7
same,xcal modified Apelblat equation,"[2]; buffer pH 2.0, 313.15 K",3.8914·10^−7
same,xcal van’t Hoff equation,"[2]; buffer pH 2.0, 313.15 K",3.8694·10^−7
same,xcal modified Apelblat equation,"[2]; buffer pH 7.4, 293.15 K",1.1915·10^−7
same,xcal van’t Hoff equation,"[2]; buffer pH 7.4, 293.15 K",1.1936·10^−7
same,xcal modified Apelblat equation,"[2]; buffer pH 7.4, 298.15 K",1.4708·10^−7
same,xcal van’t Hoff equation,"[2]; buffer pH 7.4, 298.15 K",1.4693·10^−7
same,xcal modified Apelblat equation,"[2]; buffer pH 7.4, 303.15 K",1.7998·10^−7
same,xcal van’t Hoff equation,"[2]; buffer pH 7.4, 303.15 K",1.7964·10^−7
same,xcal modified Apelblat equation,"[2]; buffer pH 7.4, 308.15 K",2.1840·10^−7
same,xcal van’t Hoff equation,"[2]; buffer pH 7.4, 308.15 K",2.1821·10^−7
same,xcal modified Apelblat equation,"[2]; buffer pH 7.4, 313.15 K",2.6294·10^−7
same,xcal van’t Hoff equation,"[2]; buffer pH 7.4, 313.15 K",2.6341·10^−7
same,xcal modified Apelblat equation,"[2]; ethanol, 293.15 K",0.9240·10^−2
same,xcal van’t Hoff equation,"[2]; ethanol, 293.15 K",0.9213·10^−2
same,xcal modified Apelblat equation,"[2]; ethanol, 298.15 K",1.1326·10^−2
same,xcal van’t Hoff equation,"[2]; ethanol, 298.15 K",1.1348·10^−2
same,xcal modified Apelblat equation,"[2]; ethanol, 303.15 K",1.3835·10^−2
same,xcal van’t Hoff equation,"[2]; ethanol, 303.15 K",1.3883·10^−2
same,xcal modified Apelblat equation,"[2]; ethanol, 308.15 K",1.6844·10^−2
same,xcal van’t Hoff equation,"[2]; ethanol, 308.15 K",1.6873·10^−2
same,xcal modified Apelblat equation,"[2]; ethanol, 313.15 K",2.0441·10^−2
same,xcal van’t Hoff equation,"[2]; ethanol, 313.15 K",2.0379·10^−2
same,xcal modified Apelblat equation,"[2]; hexane, 293.15 K",5.5187·10^−5
same,xcal van’t Hoff equation,"[2]; hexane, 293.15 K",5.5171·10^−5
same,xcal modified Apelblat equation,"[2]; hexane, 298.15 K",7.0549·10^−5
same,xcal van’t Hoff equation,"[2]; hexane, 298.15 K",7.0584·10^−5
same,xcal modified Apelblat equation,"[2]; hexane, 303.15 K",8.9506·10^−5
same,xcal van’t Hoff equation,"[2]; hexane, 303.15 K",8.9572·10^−5
same,xcal modified Apelblat equation,"[2]; hexane, 308.15 K",11.274·10^−5
same,xcal van’t Hoff equation,"[2]; hexane, 308.15 K",11.279·10^−5
same,xcal modified Apelblat equation,"[2]; hexane, 313.15 K",14.103·10^−5
same,xcal van’t Hoff equation,"[2]; hexane, 313.15 K",14.099·10^−5
